Assay results from PubChem BioAssay (NCI).
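Results reflect a 48-hour exposure of cells in 96-well plates to compound at five concentrations. GI50 marks 50% less growth. TGI is the concentration that stops growth completely.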

Legend:
Assay in all cases: NCI-60 cell line screen, 48 h
NCI-H23 lung = tested on: NCI-H23 lung
NCI-H460 lung = tested on: NCI-H460 lung
NCI-H522 lung = tested on: NCI-H522 lung
NCI/ADR-RES ovarian = tested on: NCI/ADR-RES ovarian
OVCAR-3 ovarian = tested on: OVCAR-3 ovarian
OVCAR-4 ovarian = tested on: OVCAR-4 ovarian
OVCAR-5 ovarian = tested on: OVCAR-5 ovarian
OVCAR-8 ovarian = tested on: OVCAR-8 ovarian
PC-3 prostate = tested on: PC-3 prostate
RPMI-8226 leukemia = tested on: RPMI-8226 leukemia
RXF 393 renal = tested on: RXF 393 renal
SF-268 CNS = tested on: SF-268 CNS
SF-295 CNS = tested on: SF-295 CNS
SF-539 CNS = tested on: SF-539 CNS
SK-MEL-2 melanoma = tested on: SK-MEL-2 melanoma
SK-MEL-28 melanoma = tested on: SK-MEL-28 melanoma
SK-MEL-5 melanoma = tested on: SK-MEL-5 melanoma
SK-OV-3 ovarian = tested on: SK-OV-3 ovarian
SN12C renal = tested on: SN12C renal
SNB-19 CNS = tested on: SNB-19 CNS
SNB-75 CNS = tested on: SNB-75 CNS
SR leukemia = tested on: SR leukemia
SW-620 colon = tested on: SW-620 colon
T-47D breast = tested on: T-47D breast
TK-10 renal = tested on: TK-10 renal
U251 CNS = tested on: U251 CNS
UACC-257 melanoma = tested on: UACC-257 melanoma
UACC-62 melanoma = tested on: UACC-62 melanoma
UO-31 renal = tested on: UO-31 renal

CC(=O)O[C@H]1Cc2c([nH]c3ccccc23)[C@@H](c2ccc(Cl)cc2)N1C(=O)CCNC(C)(C)C
GI50 (NCI-H23 lung): 5.12 µM
TGI (NCI-H23 lung): 10.5 µM
GI50 (NCI-H460 lung): 4.26 µM
TGI (NCI-H460 lung): 10.4 µM
GI50 (NCI-H522 lung): 5.82 µM
TGI (NCI-H522 lung): 11 µM
GI50 (NCI/ADR-RES ovarian): 5.57 µM
TGI (NCI/ADR-RES ovarian): 12.2 µM
GI50 (OVCAR-3 ovarian): 3.98 µM
TGI (OVCAR-3 ovarian): 8.59 µM
GI50 (OVCAR-4 ovarian): 3.06 µM
TGI (OVCAR-4 ovarian): 7.14 µM
GI50 (OVCAR-5 ovarian): 4.24 µM
TGI (OVCAR-5 ovarian): 8.54 µM
GI50 (OVCAR-8 ovarian): 4.86 µM
TGI (OVCAR-8 ovarian): 9.45 µM
GI50 (PC-3 prostate): 3.48 µM
TGI (PC-3 prostate): 8.12 µM
GI50 (RPMI-8226 leukemia): 2.83 µM
TGI (RPMI-8226 leukemia): 13.6 µM
GI50 (RXF 393 renal): 2.52 µM
TGI (RXF 393 renal): 6.83 µM
GI50 (SF-268 CNS): 4.21 µM
TGI (SF-268 CNS): 9.24 µM
GI50 (SF-295 CNS): 4.54 µM
TGI (SF-295 CNS): 9.01 µM
GI50 (SF-539 CNS): 4.69 µM
TGI (SF-539 CNS): 9.12 µM
GI50 (SK-MEL-2 melanoma): 4.93 µM
TGI (SK-MEL-2 melanoma): 9.88 µM
GI50 (SK-MEL-28 melanoma): 4.65 µM
TGI (SK-MEL-28 melanoma): 9.04 µM
GI50 (SK-MEL-5 melanoma): 1.28 µM
TGI (SK-MEL-5 melanoma): 4.61 µM
GI50 (SK-OV-3 ovarian): 4.53 µM
TGI (SK-OV-3 ovarian): 8.97 µM
GI50 (SN12C renal): 4.24 µM
TGI (SN12C renal): 8.54 µM
GI50 (SNB-19 CNS): 4.64 µM
TGI (SNB-19 CNS): 9.06 µM
GI50 (SNB-75 CNS): 1.64 µM
TGI (SNB-75 CNS): 7.52 µM
GI50 (SR leukemia): 1.09 µM
TGI (SR leukemia): 6.11 µM
GI50 (SW-620 colon): 4.12 µM
TGI (SW-620 colon): 8.8 µM
GI50 (T-47D breast): 3.6 µM
TGI (T-47D breast): 8.36 µM
GI50 (TK-10 renal): 5.75 µM
TGI (TK-10 renal): 10.5 µM
GI50 (U251 CNS): 4.33 µM
TGI (U251 CNS): 8.62 µM
GI50 (UACC-257 melanoma): 4.99 µM
TGI (UACC-257 melanoma): 9.66 µM
GI50 (UACC-62 melanoma): 3.92 µM
TGI (UACC-62 melanoma): 8.28 µM
GI50 (UO-31 renal): 1.45 µM
TGI (UO-31 renal): 6.08 µM
